Numbers after ± are expanded uncertainties.
Key:
[1] = xn = mol fraction of the nth substance listed; settings: 101 kPa, Liquid
[2] = 101 kPa, Liquid

CCCCn1cc[n+](C)c1.[Cl-] [1-butyl-3-methylimidazolium chloride] + CO
mass density [kg/m3], [1]
Settings	x1 = 0.0101	x1 = 0.0506	x1 = 0.1	x1 = 0.1665	x1 = 0.1951	x1 = 0.2398	x1 = 0.2991	x1 = 0.3771	x1 = 0.482
293.15 K	805.87 ± 0.47	852.64 ± 0.43	894.1 ± 0.44	935.48 ± 0.51	949.82 ± 0.55	968.61 ± 0.65	989.02 ± 0.82	1010.45 ± 1.1	1031.45 ± 1.7
298.15 K	801.3 ± 0.47	848.46 ± 0.44	890.18 ± 0.44	931.83 ± 0.51	946.25 ± 0.55	965.16 ± 0.65	985.68 ± 0.82	1007.23 ± 1.1	1028.33 ± 1.7
303.15 K	796.71 ± 0.48	844.24 ± 0.45	886.26 ± 0.45	928.17 ± 0.51	942.69 ± 0.56	961.71 ± 0.65	982.33 ± 0.82	1004.01 ± 1.1	1025.22 ± 1.7
308.15 K	792.11 ± 0.49	840.01 ± 0.45	882.35 ± 0.45	924.53 ± 0.52	939.14 ± 0.56	958.26 ± 0.65	979.01 ± 0.82	1000.8 ± 1.1	1022.12 ± 1.7
313.15 K	787.49 ± 0.49	835.76 ± 0.46	878.44 ± 0.46	920.9 ± 0.52	935.6 ± 0.56	954.83 ± 0.66	975.69 ± 0.82	997.6 ± 1.1	1019.03 ± 1.7
318.15 K	782.83 ± 0.5	831.56 ± 0.47	874.52 ± 0.47	917.27 ± 0.53	932.06 ± 0.57	951.4 ± 0.66	972.38 ± 0.82	994.41 ± 1.1	1015.96 ± 1.7

CN(C)C=O [dimethylformamide]
[2]
Settings	mass density [kg/m3]
293.15 K	948.63 ± 0.25
298.15 K	943.86 ± 0.26
303.15 K	939.08 ± 0.27
308.15 K	934.29 ± 0.27
313.15 K	929.48 ± 0.28
318.15 K	924.68 ± 0.29

CC#N [acetonitrile]
[2]
Settings	mass density [kg/m3]
293.15 K	782.04 ± 0.5
298.15 K	776.64 ± 0.51
303.15 K	771.21 ± 0.51
308.15 K	765.75 ± 0.52
313.15 K	760.25 ± 0.53
318.15 K	754.73 ± 0.54

CC#N [acetonitrile] + CCCCn1cc[n+](C)c1.[Cl-]
[1], x2 = 0
Settings	mass density [kg/m3]
293.15 K	782.04 ± 0.5
298.15 K	776.64 ± 0.51
303.15 K	771.21 ± 0.51
308.15 K	765.75 ± 0.52
313.15 K	760.25 ± 0.53
318.15 K	754.73 ± 0.54

CN(C)C=O [dimethylformamide] + CCCCn1cc[n+](C)c1.[Cl-]
[1], x2 = 0
Settings	mass density [kg/m3]
293.15 K	948.63 ± 0.25
298.15 K	943.86 ± 0.26
303.15 K	939.08 ± 0.27
308.15 K	934.29 ± 0.27
313.15 K	929.48 ± 0.28
318.15 K	924.68 ± 0.29

CO [methanol] + CCCCn1cc[n+](C)c1.[Cl-]
[1], x2 = 0
Settings	mass density [kg/m3]
293.15 K	791.3 ± 0.48
298.15 K	786.58 ± 0.49
303.15 K	781.86 ± 0.5
308.15 K	777.11 ± 0.5
313.15 K	772.33 ± 0.51
318.15 K	767.52 ± 0.52

CCCCn1cc[n+](C)c1.[Cl-] [1-butyl-3-methylimidazolium chloride] + CN(C)C=O
mass density [kg/m3], [1]
Settings	x1 = 0.0332	x1 = 0.0835	x1 = 0.1303	x1 = 0.1822	x1 = 0.2289	x1 = 0.3069	x1 = 0.3879	x1 = 0.4488
293.15 K	961.92 ± 0.26	978 ± 0.31	990.54 ± 0.37	1002.71 ± 0.48	1012.04 ± 0.62	1025.51 ± 0.91	1037.1 ± 1.3	1044.53 ± 1.6
298.15 K	957.33 ± 0.27	973.63 ± 0.31	986.33 ± 0.38	998.67 ± 0.47	1008.12 ± 0.61	1021.78 ± 0.9	1033.54 ± 1.3	1041.06 ± 1.6
303.15 K	952.73 ± 0.28	969.25 ± 0.32	982.13 ± 0.38	994.62 ± 0.48	1004.21 ± 0.6	1018.05 ± 0.89	1029.98 ± 1.3	1037.61 ± 1.6
308.15 K	948.12 ± 0.28	964.87 ± 0.32	977.91 ± 0.39	990.58 ± 0.48	1000.3 ± 0.59	1014.34 ± 0.88	1026.42 ± 1.2	1034.18 ± 1.6
313.15 K	943.52 ± 0.29	960.48 ± 0.33	973.71 ± 0.39	986.54 ± 0.49	996.4 ± 0.6	1010.63 ± 0.87	1022.89 ± 1.2	1030.77 ± 1.6
318.15 K	938.89 ± 0.3	956.09 ± 0.34	969.5 ± 0.4	982.51 ± 0.49	992.5 ± 0.6	1006.94 ± 0.86	1019.36 ± 1.2	1027.36 ± 1.5

CCCCn1cc[n+](C)c1.[Cl-] [1-butyl-3-methylimidazolium chloride] + CC#N
mass density [kg/m3], [1]
Settings	x1 = 0.0303	x1 = 0.0797	x1 = 0.1308	x1 = 0.1806	x1 = 0.235	x1 = 0.2914	x1 = 0.3717	x1 = 0.439
293.15 K	815.47 ± 0.47	859.07 ± 0.46	894.46 ± 0.48	922.76 ± 0.55	948.31 ± 0.65	970.09 ± 0.8	995.09 ± 1.1	1012.49 ± 1.4
298.15 K	810.4 ± 0.48	854.38 ± 0.46	890.07 ± 0.49	918.62 ± 0.55	944.36 ± 0.65	966.32 ± 0.8	991.52 ± 1.1	1009.08 ± 1.4
303.15 K	805.29 ± 0.48	849.67 ± 0.47	885.68 ± 0.5	914.46 ± 0.55	940.39 ± 0.65	962.55 ± 0.8	987.95 ± 1.1	1005.66 ± 1.4
308.15 K	800.18 ± 0.49	844.95 ± 0.48	881.27 ± 0.5	910.3 ± 0.56	936.47 ± 0.66	958.78 ± 0.8	984.38 ± 1.1	1002.25 ± 1.4
313.15 K	795.05 ± 0.5	840.21 ± 0.48	876.86 ± 0.51	906.14 ± 0.56	932.51 ± 0.66	955.02 ± 0.8	980.83 ± 1.1	998.86 ± 1.4
318.15 K	789.88 ± 0.51	835.48 ± 0.49	872.45 ± 0.51	901.98 ± 0.57	928.57 ± 0.66	951.26 ± 0.8	977.28 ± 1.1	995.46 ± 1.4

CCCCn1cc[n+](C)c1.[Cl-] [1-butyl-3-methylimidazolium chloride] + O
mass density [kg/m3], [1]
Settings	x1 = 0.0121	x1 = 0.0381	x1 = 0.0819	x1 = 0.1109	x1 = 0.1399	x1 = 0.2489	x1 = 0.2977	x1 = 0.4083
293.15 K	1007.06 ± 0.2	1024.73 ± 0.26	1046.21 ± 0.36	1055.73 ± 0.43	1062.54 ± 0.51	1076.98 ± 0.85	1080.14 ± 1	1084.32 ± 1.6
298.15 K	1005.53 ± 0.19	1022.46 ± 0.25	1043.25 ± 0.36	1052.62 ± 0.43	1059.39 ± 0.5	1073.95 ± 0.85	1077.15 ± 1	1081.43 ± 1.6
303.15 K	1003.8 ± 0.19	1020.07 ± 0.25	1040.24 ± 0.35	1049.46 ± 0.42	1056.2 ± 0.5	1070.89 ± 0.84	1074.16 ± 1	1078.53 ± 1.5
308.15 K	1001.89 ± 0.19	1017.57 ± 0.24	1037.17 ± 0.34	1046.28 ± 0.41	1052.99 ± 0.49	1067.82 ± 0.83	1071.15 ± 1	1075.63 ± 1.5
313.15 K	999.81 ± 0.19	1014.95 ± 0.24	1034.06 ± 0.34	1043.06 ± 0.41	1049.76 ± 0.48	1064.72 ± 0.82	1068.14 ± 1	1072.73 ± 1.5
318.15 K	997.57 ± 0.19	1012.24 ± 0.24	1030.89 ± 0.33	1039.81 ± 0.4	1046.48 ± 0.48	1061.63 ± 0.81	1065.09 ± 1	1069.82 ± 1.5

CO [methanol]
[2]
Settings	mass density [kg/m3]
293.15 K	791.3 ± 0.48
298.15 K	786.58 ± 0.49
303.15 K	781.86 ± 0.5
308.15 K	777.11 ± 0.5
313.15 K	772.33 ± 0.51
318.15 K	767.52 ± 0.52

Source: the NIST ThermoML archive (doi:10.1021/je900733j)
